Experimental findings from US10851089B2, “Matrix metalloproteinase (MMP) inhibitors and methods of use thereof” (Foresee Pharmaceuticals Co., Ltd., priority 2018, dated 2020) are described below.

As a reminder, the IC50 is the point on the concentration scale where inhibition reaches its midpoint.

One assay concerns the target recombinant human MMP-1 (Homo sapiens (Human), UniProt P03956). Put plainly: MMP selectivity assay MMP-1. Type of assay: biochemical. The method, then: (§1) The inhibitory effect of compounds on the rate of cleaving fluorogenic MMP substrate (Enzo, BML-P128) by recombinant human MMP-12 catalytic domain (Enzo, BML-SE138) was carried out by methods known in the art. Briefly, to each well of a 96-well black opaque plate, all the reagents were sequentially added by pipetting, and the final reaction contained 4 nM of recombinant human MMP-12 catalytic domain, 4 μM of fluorogenic MMP substrate, and various concentrations (0.15 nM to 10,000 nM) of tested compound dilutions in HEPES buffer (pH 7.5) containing 10 mM of CaCl2, 0.01% Brij® 35 (polyoxyethylene (23) lauryl ether), and 0.1 mg/ml of BSA.
(§2) The enzyme and compounds were pre-incubated on a shaker to mix in wells. After an hour of mixing, fluorogenic substrate was added to each well. Reaction without enzyme was used as a blank control in the plate. The plate was then fed into a plate reader to measure fluorescence intensity at Excitation/Emission wavelengths of 340 nm/440 nm every 10 mins for at least 1 hour at 37° C. The IC50 of each compound in MMP-12 inhibition was determined by using a readout obtained at time point 30 minutes.
(§3) The MMP selectivity assay was performed by using other recombinant human MMPs, including MMP-1, MMP-2, MMP-3, MMP-7, MMP-8, MMP-9, MMP-10, MMP-13, and MMP-14. The IC50 of the compounds for the other recombinant human MMPs was determined as described above in Example 1, and are shown in Table 2.

Assay [1] has as its system UUO-induced renal fibrosis. Put plainly: SD rat kidney fibrosis model by unilateral ureteral occlusion (UUO). Type of assay: in vivo, Sprague Dawley rat. As to the method: This study was to evaluate the therapeutic efficacy of the MMP-12 inhibitor FC-4 on a renal fibrosis model by unilateral ureteral occlusion (UUO). Male Sprague Dawley (SD) rats (180-220 g, n=71) were used in this study. Animals were randomly divided into 4 groups: vehicle group (group-1, n=8), FC-4 2 mg/kg/day group (group-2, n=9), FC-4 6 mg/kg/day group (group-3, n=9), FC-4 20 mg/kg/day group (group-4, n=9). Animals were anesthetized with 2.5% isoflurane inhalation. The left ureter was ligated to create a unilateral ureteral occlusion (UUO) model to induce renal fibrosis. The test article FC-4 was administrated twice a day via oral delivery after modeling for 14 days. Peripheral blood serum was prepared at pre-modeling and day-15 (one day after last dosing). All animals were euthanized and processed for left kidney pathology studies.
Animals: Gender: Male, SD rats, 180-220 g, total 71. Certificate: 11400700272659, Beijing Vital River Laboratory Animal Technology Co., Ltd., China. Animal holding: Animals were maintained in a temperature-controlled environment with a 12 hours light/12 hours dark cycle and free access to food and water. Experimental procedures were performed according to IACUC guidelines in the KCI (SuZhou) Biotech Inc. (KCI) animal research facility. Model creation: Total 36 male SD rats were used in this study. After anesthesia with 2.5% isoflurane inhalation the animal abdomen was opened surgically. The left ureter was exposed and ligated close to the bladder to create the UUO model. After confirming no bleeding, the abdomen wall was closed in layers. The animals were maintained under temperature controlled pad (37° C.) for the recovery from anesthesia, and then were transferred to holding cages with regular food and water.
Experiment grouping: UUO modeling animals were divided into 4 groups randomly as vehicle (group-1, n=9), FC-4 2 mg/kg/day (group-2, n=9), FC-4 6 mg/kg/day (group-3, n=9), FC-4 20 mg/kg/day (group-4, n=9) (Table 4.1). Dosing regimen: All test articles were designed as an oral administration via a gastric perfusion. Test articles were designed to be delivered twice a day starting on the same day of modeling for 14 days (Table 4.1). Endpoints: 1) Blood collection: Peripheral blood was collected from all animals in each group and prepared for serum at pre-modeling and day-15 (one day after last dosing), stored at −80° C. All animals were euthanized according to KCI SOP. After confirming animal death without breath and heart beat, the left kidneys were perfused with cold PBS followed by 10% neutral formalin and collected for further pathology study. 2) Detection of serum BUN and creatinine: The serum BUN and creatinine level were detected with Hitachi 7060 automatic biochemical analyzer and related test kits. 3) Kidney pathology examination: 3a) Kidney H&E staining and analysis: Following KCI's pathologic SOP all left kidneys were fixed in 10% formalin for at least 24 h at room temperature. After fixation, the kidney was cut longitudinally to get the largest surface and dehydrated in graded ethanol, cleared in xylene, and embedded in paraffin. Thin sections (3-μm) were mounted on glass slides, dewaxed, rehydrated to distilled water, and stained with hematoxylin and eosin (H&E). All stained slides were scanned with NanoZoomer Digital Pathology (S210, Hamamaci, Japan) scanner. Semi quantitative evaluation of the degree of tubular epithelial flattening and dilatation were graded from 0-5 according to the percentage of tubular involvement: score 0=no damage; score 1=1-10% damage; score 2=10-25% damage; score 3=25-50% damage; score 4=50-75% damage; score 5=75-100% damage. Semi quantitative evaluation of the tubular necrosis is graded from 0 to 3 according to the percentage of tubular involvement: score 0=no necrosis; score 1=<25% necrosis; score 2=25-50% necrosis; score 3=>50% necrosis. The average of tubular flattening and dilatation and necrosis as the total tubular damage was presented. […]

Another assay has as its target recombinant human MMP-8 (Homo sapiens (Human), UniProt P22894). Put plainly: MMP selectivity assay MMP-8. Type of assay: biochemical. The method, then:
as §1, §2, §3

Another assay concerns the target recombinant human MMP-10 (Homo sapiens (Human), UniProt P09238). Put plainly: MMP selectivity assay MMP-10. Type of assay: biochemical. The method, then: as §1, §2, §3
In a further assay the target is recombinant human MMP-13 (Homo sapiens (Human), UniProt P45452). Put plainly: MMP selectivity assay MMP-13. Type of assay: biochemical. As to the method: as §1, §2, §3
In a further assay the target is recombinant human MMP-9 (Homo sapiens (Human), UniProt P14780). Put plainly: MMP selectivity assay MMP-9. Type of assay: biochemical. The method, then: as §1, §2, §3
recombinant human MMP-9, sequence (P14780 94-707): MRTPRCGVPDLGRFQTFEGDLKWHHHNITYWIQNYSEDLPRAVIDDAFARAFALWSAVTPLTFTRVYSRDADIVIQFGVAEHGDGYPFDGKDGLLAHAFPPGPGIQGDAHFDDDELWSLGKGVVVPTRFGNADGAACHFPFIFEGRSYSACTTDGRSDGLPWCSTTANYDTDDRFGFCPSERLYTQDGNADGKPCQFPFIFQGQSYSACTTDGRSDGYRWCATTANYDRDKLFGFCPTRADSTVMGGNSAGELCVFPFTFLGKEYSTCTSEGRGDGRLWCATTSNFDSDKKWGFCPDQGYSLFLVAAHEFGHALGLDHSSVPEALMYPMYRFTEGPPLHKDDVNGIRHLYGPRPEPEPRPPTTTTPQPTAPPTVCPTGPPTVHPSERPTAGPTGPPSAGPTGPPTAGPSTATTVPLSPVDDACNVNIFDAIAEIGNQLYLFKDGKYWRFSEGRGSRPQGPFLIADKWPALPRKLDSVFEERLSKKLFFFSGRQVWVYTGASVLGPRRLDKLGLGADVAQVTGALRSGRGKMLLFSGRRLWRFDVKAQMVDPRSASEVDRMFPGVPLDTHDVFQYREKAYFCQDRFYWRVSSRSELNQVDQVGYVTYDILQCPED
Assay [2] concerns the target recombinant human MMP-12 catalytic domain (Homo sapiens (Human), UniProt P39900). Put plainly: MMP-12 inhibitory assay (fluorogenic substrate cleavage). Type of assay: biochemical. As to the method:
as §1, §2

For a further assay, the target named is recombinant human MMP-3 (Homo sapiens (Human), UniProt P08254). Put plainly: MMP selectivity assay MMP-3. Type of assay: biochemical. As to the method:
as §1, §2, §3

The target in the next assay is recombinant human MMP-7 (Homo sapiens (Human), UniProt P09237). Put plainly: MMP selectivity assay MMP-7. Type of assay: biochemical. The method, then: as §1, §2, §3
recombinant human MMP-7, sequence (P09237 95-267): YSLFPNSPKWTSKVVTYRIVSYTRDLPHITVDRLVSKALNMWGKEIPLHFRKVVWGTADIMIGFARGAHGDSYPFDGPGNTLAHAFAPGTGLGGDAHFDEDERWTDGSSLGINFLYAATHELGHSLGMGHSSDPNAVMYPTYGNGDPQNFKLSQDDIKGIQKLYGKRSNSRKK
The next assay addresses recombinant human MMP-2 (Homo sapiens (Human), UniProt P08253). Put plainly: MMP selectivity assay MMP-2. Type of assay: biochemical. The method, then:
as §1, §2, §3

Like-named read-outs stand apart in the source and are kept apart here. Bounds are passed on as bounds.

recombinant human MMP-12 catalytic domain, sequence (P39900 106-263): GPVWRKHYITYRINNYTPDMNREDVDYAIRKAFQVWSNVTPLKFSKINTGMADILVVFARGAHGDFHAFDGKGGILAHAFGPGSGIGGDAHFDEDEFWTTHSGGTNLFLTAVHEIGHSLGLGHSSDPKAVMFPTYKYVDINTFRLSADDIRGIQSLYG
recombinant human MMP-3, sequence (P08254 100-477): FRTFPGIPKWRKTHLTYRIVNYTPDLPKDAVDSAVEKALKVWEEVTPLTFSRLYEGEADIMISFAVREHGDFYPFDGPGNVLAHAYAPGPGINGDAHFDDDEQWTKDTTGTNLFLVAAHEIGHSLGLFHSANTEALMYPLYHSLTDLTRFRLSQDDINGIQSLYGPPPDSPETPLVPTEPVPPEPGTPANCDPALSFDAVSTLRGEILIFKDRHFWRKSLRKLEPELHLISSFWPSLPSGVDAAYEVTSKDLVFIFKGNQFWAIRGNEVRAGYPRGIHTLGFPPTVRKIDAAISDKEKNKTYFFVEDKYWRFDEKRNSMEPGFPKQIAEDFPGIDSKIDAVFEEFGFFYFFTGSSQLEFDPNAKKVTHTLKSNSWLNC
recombinant human MMP-2, sequence (P08253 110-660): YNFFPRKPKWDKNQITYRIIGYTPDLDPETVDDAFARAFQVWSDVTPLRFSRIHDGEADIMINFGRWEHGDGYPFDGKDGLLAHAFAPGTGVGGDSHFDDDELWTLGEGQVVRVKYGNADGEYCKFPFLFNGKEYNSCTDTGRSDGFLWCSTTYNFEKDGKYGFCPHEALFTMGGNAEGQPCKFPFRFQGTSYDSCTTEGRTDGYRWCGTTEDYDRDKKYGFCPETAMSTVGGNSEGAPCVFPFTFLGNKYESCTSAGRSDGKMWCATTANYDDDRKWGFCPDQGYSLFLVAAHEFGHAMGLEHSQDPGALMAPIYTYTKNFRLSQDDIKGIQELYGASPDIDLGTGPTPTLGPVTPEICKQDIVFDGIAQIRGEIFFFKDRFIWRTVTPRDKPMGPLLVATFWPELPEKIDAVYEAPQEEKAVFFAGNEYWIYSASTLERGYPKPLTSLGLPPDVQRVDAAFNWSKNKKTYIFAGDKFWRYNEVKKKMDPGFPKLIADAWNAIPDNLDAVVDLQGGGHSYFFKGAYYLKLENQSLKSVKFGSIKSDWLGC
recombinant human MMP-8, sequence (P22894 101-467): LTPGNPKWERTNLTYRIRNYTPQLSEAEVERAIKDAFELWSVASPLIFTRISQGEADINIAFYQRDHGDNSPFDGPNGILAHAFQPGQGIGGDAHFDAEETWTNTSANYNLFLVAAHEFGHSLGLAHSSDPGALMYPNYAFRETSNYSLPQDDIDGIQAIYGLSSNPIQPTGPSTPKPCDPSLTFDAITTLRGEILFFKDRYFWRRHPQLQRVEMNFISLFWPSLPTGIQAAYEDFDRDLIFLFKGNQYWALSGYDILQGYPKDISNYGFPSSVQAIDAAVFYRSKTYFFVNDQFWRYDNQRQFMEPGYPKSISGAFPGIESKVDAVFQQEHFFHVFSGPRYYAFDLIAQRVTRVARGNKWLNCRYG
recombinant human MMP-1, sequence (P03956 100-469): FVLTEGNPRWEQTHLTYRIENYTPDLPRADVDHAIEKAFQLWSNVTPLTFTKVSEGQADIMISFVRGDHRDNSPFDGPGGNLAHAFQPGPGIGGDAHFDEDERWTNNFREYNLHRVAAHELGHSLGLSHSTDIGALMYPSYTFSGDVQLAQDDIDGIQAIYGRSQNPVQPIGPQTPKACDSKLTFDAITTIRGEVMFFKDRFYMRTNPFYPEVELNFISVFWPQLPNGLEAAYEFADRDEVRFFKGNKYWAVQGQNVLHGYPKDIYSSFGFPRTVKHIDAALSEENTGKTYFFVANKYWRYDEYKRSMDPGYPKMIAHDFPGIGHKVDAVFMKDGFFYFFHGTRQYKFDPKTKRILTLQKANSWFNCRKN
recombinant human MMP-10, sequence (P09238 99-476): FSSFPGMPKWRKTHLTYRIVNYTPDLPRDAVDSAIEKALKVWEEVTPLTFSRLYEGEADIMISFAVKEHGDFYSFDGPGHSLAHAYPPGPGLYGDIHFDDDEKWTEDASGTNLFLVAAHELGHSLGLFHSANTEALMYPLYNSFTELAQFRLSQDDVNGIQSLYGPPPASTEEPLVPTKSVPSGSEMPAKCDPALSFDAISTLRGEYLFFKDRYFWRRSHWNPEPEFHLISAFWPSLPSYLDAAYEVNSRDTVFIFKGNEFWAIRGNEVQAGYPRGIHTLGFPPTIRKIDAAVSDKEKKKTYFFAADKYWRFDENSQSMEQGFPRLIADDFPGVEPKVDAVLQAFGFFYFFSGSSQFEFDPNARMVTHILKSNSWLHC

As to `Cc1cc(COc2ccc(Sc3ccoc3C3NC(=O)NC3=O)cc2)ccn1` (centres unmarked) [FC-4], the IC50 on recombinant human MMP-1 was over 10000 nM; on recombinant human MMP-8 it was 10 to 100 nM; at recombinant human MMP-10 it was 100 to 1000 nM; on recombinant human MMP-13, 10 to 100 nM; on recombinant human MMP-9, 100 to 1000 nM; in assay [2] (Table 2 selectivity profile, read-out: MMP-12 activity (IC50)) it was under 10 nM. For the same compound, the IC50 in assay [2] (readout at 30 minutes, read-out: MMP-12 IC50) is under 10 nM; at recombinant human MMP-3, 100 to 1000 nM; at recombinant human MMP-7 it was over 10000 nM; at recombinant human MMP-2 it was 100 to 1000 nM. The “Collagen-IV deposition in cortex of left kidney (IHC)” value in [1] (6 mg/kg/day, p<0.05) is recorded as “significant reduction”; in assay [1] (20 mg/kg/day, p<0.001) it was “significant reduction”. The “Collagen-I deposition in cortex of left kidney (IHC)” value in assay [1] (20 mg/kg/day) is reported as “significant reduction”. The “Serum BUN elevation” value in [1] (20 mg/kg/day p.o. bid, day-15, not statistically significant vs model) is “slightly limit the BUN elevation”. Moreover, the “Interstitial fibrosis score in cortex” value in [1] (20 mg/kg/day, p<0.001) is “significant reduction”. The “Left kidney tubular damage score” value in assay [1] (2, 6, 20 mg/kg/day, 20 more effective than 2 mg/kg/day (p<0.01)) is listed as “clear dose dependent effect”. In addition, the “Interstitial inflammation in cortex (semi quantitative)” value in [1] (dose dependent efficacy) is on record as “significant reduction”.
